≈ marks a conversion by molar mass, not a printed value. Like-named read-outs stand apart in the source and are kept apart here. Bridge positions count the residues as written; N and C are the ends. Square brackets hold non-standard residues; d marks the D form. Peptide text beside a SMILES is read from it. * marks the point of attachment. Ileψ(thiazoline)Cys = CC[C@H](C)[C@H](N)C1=N[C@H](C(=O)*)CS1; dOrn = NCCC[C@@H](N)C(=O)O
What was measured:
[1] = tested on: Cystobacter velatus MCy8071; assay: Antibiotic resistance of the producer strain; format: cell-based; conditions: final concentration of all antibiotics 50 μg ml^−1
Description: MCy8071 is resistant against the following antibiotics: ampicillin, gentamycin, hygromycin, polymycin, bacitracin, spectinomycin, neomycin, and fusidinic acid. Weak growth is possible with cephalosporin and kasugamycin and no growth is possible with thiostrepton, trimethoprin, kanamycin, and oxytetracycline (final concentration of all antibiotics was adjusted to 50 μg ml^−1).

[2] = tested on: E. coli strain WT III (marR Δ74 bp); assay: Susceptibility of mutant E. coli strains, MIC; format: cell-based; conditions: for factor of MIC increase: E. coli WT III compared to wildtype E. coli DSM-1116; for MIC, in words: E. coli WT III
Description: (§1) Bacterial wildtype strains used in susceptibility assays were either part of our strain collection or purchased from the German Collection of Microorganisms and Cell Cultures (DSMZ) or from the American Type Culture Collection (ATCC). E. coli strain WT^[6] and E. coli mutants were kindly provided by Prof. Dr. P. Heisig, Pharmaceutical Biology and Microbiology, University of Hamburg.
(§2) MIC values were determined in microdilution assays. Overnight cultures were diluted in the appropriate growth medium to achieve an inoculum of 10^4-10^6 cfu/mL. Yeasts were grown in Myc medium (1% phytone peptone, 1% glucose, 50 mM HEPES, pH 7.0), S. pneumonia and E. faecalis in tryptic soy broth (TSB: 1.7% peptone casein, 0.3% peptone soymeal, 0.25% glucose, 0.5% NaCl, 0.25% K2HPO4; pH 7.3); M. smegmatis in Middlebrook 7H9 medium supplemented with 10% Middlebrook ADC enrichment and 2 ml/l glycerol). All other listed bacteria were grown in Müller-Hinton broth (0.2% beef infusion solids, 1.75% casein hydrolysate, 0.15% starch, pH 7.4). Cystobactamides and reference drugs were added directly to the cultures in sterile 96-well plates as duplicates and serial dilutions were prepared. Microorganisms were grown on a microplate shaker (750 rpm, 30-37° C., 18-48 h), except S. pneumonia, which was grown at non-shaking conditions (37° C., 5% CO2, 18 h). Growth inhibition was assessed by visual inspection and the MIC was defined as the lowest concentration of compound that inhibited visible growth.

[3] = tested on: E. coli WT; assay: Susceptibility of mutant E. coli strains, MIC; format: cell-based; conditions: Escherichia coli
Text: (§3) Cystobactamides were screened using a panel of E. coli strains with typical mutations in gyrA and parC genes (Table 11).
High-level quinolone resistance often results from a combination of several target site mutations and altered efflux mechanisms. […] This, in turn, leads to overproduction of MarA and AcrAB and overexpression of the AcrAB efflux pump is associated with the MAR (multiple antibiotic resistance) phenotype.^[5]
as §1, §2

[4] = tested on: E. coli strain WT-3.2 (single-step gyrA mutation); assay: Susceptibility of mutant E. coli strains, MIC; format: cell-based; conditions: strain WT-3.2, single-step gyrA mutation
Text: as §3, §1, §2

[5] = tested on: E. coli strain WT-4 M2.1 (parC mutation); assay: Susceptibility of mutant E. coli strains, MIC; format: cell-based
Text: as §3, §1, §2

[6] = tested on: E. coli strain MI (single-step gyrA mutation); assay: Susceptibility of mutant E. coli strains, MIC; format: cell-based; conditions: strain MI, single-step gyrA mutation
Text: as §3, §1, §2

[7] = tested on: Bacillus subtilis DSM-10; assay: Susceptibility testing, MIC microdilution; format: cell-based; conditions: DSM10; Bacillus subtilis DSM-10; read-out: MIC
Description: as §1, §2

[8] = tested on: Escherichia coli DSM-12242 (NAL^R); assay: Susceptibility testing, MIC microdilution; format: cell-based; conditions: Escherichia coli, DSM12242
Description: as §1, §2

[9] = tested on: Pseudomonas aeruginosa ATCC27853; assay: Susceptibility testing, MIC microdilution; format: cell-based; conditions: read-out: MIC
Description: as §1, §2

[10] = tested on: Enterobacter aerogenes DSM-30053; assay: Susceptibility testing, MIC microdilution; format: cell-based; conditions: Klebsiella aerogenes, DSM30053; Enterobacter aerogenes DSM-30053; read-out: MIC
Description: as §1, §2

[11] = tested on: Acinetobacter baumannii DSM-30008; assay: Susceptibility testing, MIC microdilution; format: cell-based; conditions: DSM30008; Acinetobacter baumannii DSM-30008; read-out: MIC
Description: as §1, §2

[12] = tested on: Escherichia coli ATCC35218; assay: Susceptibility testing, MIC microdilution; format: cell-based; conditions: read-out: MIC
Description: as §1, §2

[13] = tested on: Pichia anomala DSM-6766; assay: Susceptibility testing, MIC microdilution; format: cell-based; conditions: Hansenula anomala, DSM6766; Pichia anomala DSM-6766; read-out: MIC
Description: as §1, §2

[14] = tested on: Staphylococcus aureus ATCC29213; assay: Susceptibility testing, MIC microdilution; format: cell-based; conditions: read-out: MIC
Description: as §1, §2

[15] = tested on: Escherichia coli DSM-26863 (tolC3); assay: Susceptibility testing, MIC microdilution; format: cell-based
Description: as §1, §2

[16] = tested on: Escherichia coli DSM-1116; assay: Susceptibility testing, MIC microdilution; format: cell-based; conditions: Escherichia coli DSM-1116
Description: as §1, §2

[17] = tested on: Candida albicans DSM-1665; assay: Susceptibility testing, MIC microdilution; format: cell-based; conditions: DSM1665; Candida albicans DSM-1665; read-out: MIC
Description: as §1, §2

[18] = tested on: Chromobacterium violaceum DSM-30191; assay: Susceptibility testing, MIC microdilution; format: cell-based; conditions: DSM30191; Chromobacterium violaceum DSM-30191; read-out: MIC
Description: as §1, §2

[19] = tested on: Enterococcus faecalis ATCC29212; assay: Susceptibility testing, MIC microdilution; format: cell-based; conditions: read-out: MIC
Description: as §1, §2

[20] = tested on: Escherichia coli ATCC25922; assay: Susceptibility testing, MIC microdilution; format: cell-based; conditions: read-out: MIC
Description: as §1, §2

[21] = tested on: Mycobacterium smegmatis mc^2155 ATCC700084; assay: Susceptibility testing, MIC microdilution; format: cell-based; conditions: Mycolicibacterium smegmatis, ATCC700084|MC^2155; Mycobacterium smegmatis mc^2155 ATCC700084; read-out: MIC
Description: as §1, §2

[22] = tested on: Klebsiella pneumoniae DSM-30104; assay: Susceptibility testing, MIC microdilution; format: cell-based; conditions: DSM30104; Klebsiella pneumoniae DSM-30104; read-out: MIC
Description: as §1, §2

[23] = tested on: Burkholderia cenocepacia DSM-16553; assay: Susceptibility testing, MIC microdilution; format: cell-based; conditions: DSM16553; Burkholderia cenocepacia DSM-16553; read-out: MIC
Description: as §1, §2

[24] = tested on: Streptococcus pneumoniae DSM-20566; assay: Susceptibility testing, MIC microdilution; format: cell-based; conditions: DSM20566; Streptococcus pneumoniae DSM-20566; read-out: MIC
Description: as §1, §2

[25] = tested on: Micrococcus luteus DSM-1790; assay: Susceptibility testing, MIC microdilution; format: cell-based; conditions: DSM1790; Micrococcus luteus DSM-1790; read-out: MIC
Description: as §1, §2

[26] = tested on: Pseudomonas aeruginosa PA14; assay: Susceptibility testing, MIC microdilution; format: cell-based
Description: as §1, §2

[27] = biological target: DNA/gyrase complex (Escherichia coli, UniProt P0AES4+P0AES6); conditions: cystobactamide D 18 μM, ciprofloxacin 1 μM
Description: (B) Here, standard gyrase reactions were inhibited using a constant amount of cystobactamide D and titrated with increasing amounts of ATP. If ATP and cystobactamide D would compete for binding at the ATP binding pocket on the gyrase GyrB subunit, increasing amounts of ATP would lead to the formation of supercoiled plasmid in the assay.
To test if cystobactamides stabilize the covalent complex between DNA gyrase and the nicked DNA substrate, proteinase K linearization assay were performed (see a). […] To detect linearized plasmid bands the relaxed plasmid was digested by the single-cutting restriction enzyme Ndel.

[28] = tested on: Chinese hamster ovary CHO-K1 cells; assay: in vitro; format: cell-based
Description: Human HCT-116 colon carcinoma cells (CCL-247) were obtained from the American Type Culture Collection (ATCC) and Chinese hamster ovary CHO-K1 cells (ACC-110) were obtained from the German Collection of Microorganisms and Cell Cultures (DSMZ). Both cell lines were cultured under the conditions recommended by the respective depositor. Primary HUVEC (human umbilical vein endothelial cells; single donor) were purchased from PromoCell (Heidelberg, Germany) and cultured in Endothelial Cell Growth Medium (PromoCell) containing the following supplements: 2% FCS, 0.4% ECGS, 0.1 ng/ml EGF, 1 ng/ml bFGF, 90 μg/ml heparin, 1 μg/ml hydrocortisone.
(§4) Cells were seeded at 6×10^3 cells per well of 96-well plates (Corning CellBind®) in complete medium (180 μl) and directly treated with cystobactamides dissolved in methanol in a serial dilution. Compound were tested in duplicate for 5 d, as well as the internal solvent control. After 5 d incubation, 5 mg/ml MTT in PBS (20 μL) was added per well and it was further incubated for 2 h at 37° C.[7] The medium was then discarded and cells were washed with PBS (100 μl) before adding 2-propanol/10N HCl (250:1, v/v; 100 μl) in order to dissolve formazan granules. The absorbance at 570 nm was measured using a microplate reader (EL808, Bio-Tek Instruments Inc.).

[29] = tested on: several microorganisms and cell lines; assay: Biological evaluation, summary statements over the MIC and cytotoxicity tests; format: cell-based; conditions: A. baumannii and P. aeruginosa
Description: as §4, §2

[30] = Escherichia coli WTIII [marRΔ74bp]
[31] = Escherichia coli DSM-26863 (tolC3)

DNA/gyrase complex, sequence (P0AES4 whole entry, one chain of several): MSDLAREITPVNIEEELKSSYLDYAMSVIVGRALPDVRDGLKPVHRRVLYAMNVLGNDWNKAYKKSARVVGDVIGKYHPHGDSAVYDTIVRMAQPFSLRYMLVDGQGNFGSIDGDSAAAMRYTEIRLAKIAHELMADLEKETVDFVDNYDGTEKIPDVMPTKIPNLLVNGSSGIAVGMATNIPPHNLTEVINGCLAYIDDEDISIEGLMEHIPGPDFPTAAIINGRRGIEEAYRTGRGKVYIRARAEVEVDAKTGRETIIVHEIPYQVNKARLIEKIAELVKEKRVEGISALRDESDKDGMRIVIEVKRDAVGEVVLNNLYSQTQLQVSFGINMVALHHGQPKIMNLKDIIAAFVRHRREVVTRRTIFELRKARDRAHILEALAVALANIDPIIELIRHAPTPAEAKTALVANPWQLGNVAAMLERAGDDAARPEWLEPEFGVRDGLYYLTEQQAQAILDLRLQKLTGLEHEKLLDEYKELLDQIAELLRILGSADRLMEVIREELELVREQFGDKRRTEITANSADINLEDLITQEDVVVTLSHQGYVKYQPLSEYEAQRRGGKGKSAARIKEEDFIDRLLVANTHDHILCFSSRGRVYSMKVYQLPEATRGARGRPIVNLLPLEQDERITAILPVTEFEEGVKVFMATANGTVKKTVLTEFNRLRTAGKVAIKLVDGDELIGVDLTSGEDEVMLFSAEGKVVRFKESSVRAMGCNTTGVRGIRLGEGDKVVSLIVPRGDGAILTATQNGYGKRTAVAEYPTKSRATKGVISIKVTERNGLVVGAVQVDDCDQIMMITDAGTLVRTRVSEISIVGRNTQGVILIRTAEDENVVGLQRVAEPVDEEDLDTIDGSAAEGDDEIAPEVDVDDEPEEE

CC1(C)S[C@@H]2[C@H](NC(=O)[C@H](N)c3ccccc3)C(=O)N2[C@H]1C(=O)O [ampicillin]
growth of strain MCy8071 in presence of the antibiotic [1]: resistant

CC[C@H](C)[C@H](N)C1=N[C@H](C(=O)N[C@@H](CC(C)C)C(=O)N[C@H](CCC(=O)O)C(=O)N[C@H](C(=O)N[C@H]2CCCCNC(=O)[C@H](CC(N)=O)NC(=O)[C@@H](CC(=O)O)NC(=O)[C@H](Cc3cnc[nH]3)NC(=O)[C@@H](Cc3ccccc3)NC(=O)[C@H]([C@@H](C)CC)NC(=O)[C@@H](CCCN)NC2=O)[C@@H](C)CC)CS1 [bacitracin] ({Ileψ(thiazoline)Cys}-L[dE]IK[dOrn]I[dF]H[dD]N; lactam 4-C)
growth of strain MCy8071 in presence of the antibiotic [1]: resistant

O=C(O)c1cn(C2CC2)c2cc(N3CCNCC3)c(F)cc2c1=O [ciprofloxacin, reference compound]
factor of MIC increase [2]: ~10 | factor of reduced susceptibility ([2]; E. coli WT III cp. E. coli WT): ca. 4 | MIC ([2]; Escherichia coli): 0.05 µg/mL (≈ 0.151 µM) | MIC [3]: 0.013 µg/mL | factor of MIC increase [4]: ~30 | MIC ([5]; Escherichia coli): 0.025 µg/mL (≈ 0.0754 µM) | increase of the MIC ([5]; strain WT-4 M2.1, parC mutation): two-fold increase | factor of MIC increase [6]: ~30 | MIC [7]: 0.1 µg/mL (≈ 0.302 µM) | MIC [8]: 0.05 µg/mL (≈ 0.151 µM) | MIC [9]: 0.1 µg/mL (≈ 0.302 µM) | MIC [10]: 0.2 µg/mL (≈ 0.604 µM) | MIC [11]: 0.2 µg/mL (≈ 0.604 µM) | MIC [12]: 6 ng/mL (≈ 0.0181 µM) | MIC [13]: > 6.4 µg/mL | MIC [14]: 0.1 µg/mL (≈ 0.302 µM) | MIC ([15]; Escherichia coli, DSM26863): ≤ 0.003 µg/mL | MIC ([16]; DSM1116, read-out: MIC): 0.006 µg/mL (≈ 0.0181 µM) | MIC [17]: > 6.4 µg/mL | MIC [18]: 6 ng/mL (≈ 0.0181 µM) | MIC [19]: 0.8 µg/mL (≈ 2.41 µM) | MIC [20]: ≤ 3 ng/mL | MIC [21]: 0.4 µg/mL (≈ 1.21 µM) | MIC [22]: 0.025 µg/mL (≈ 0.0754 µM) | MIC [23]: 6.4 µg/mL (≈ 19.3 µM) | MIC [24]: 1.6 µg/mL (≈ 4.83 µM) | MIC [25]: 1.6 µg/mL (≈ 4.83 µM) | MIC ([26]; read-out: MIC): 0.1 µg/mL (≈ 0.302 µM) | formation of linearized plasmid after proteinase K treatment [27]: formation of linearized plasmid

COC(C(N)=O)C(NC(=O)c1ccc(NC(=O)c2ccc([N+](=O)[O-])cc2)cc1)C(=O)Nc1ccc(C(=O)Nc2ccc(C(=O)Nc3ccc(C(=O)O)cc3)c(O)c2OC(C)C)cc1 (centres unmarked) [cystobactamide F]
MIC, in words [2]: in the μg/ml range | factor of MIC increase [2]: 2 | MIC [2, 30]: 0.9 µg/mL (≈ 1.04 µM) | GI50 [28]: > 111 µM | MIC [15, 31]: 0.4 µg/mL (≈ 0.464 µM) | MIC [16]: 0.4 µg/mL (≈ 0.464 µM) | MIC [26]: 3.4 µg/mL (≈ 3.95 µM) | inhibition of pathogenic Gram-negative strains A. baumannii and P. aeruginosa (MIC range) [29]: low μg/ml range

COc1cc(C(=O)O)ccc1NC(=O)c1ccc(NC(=O)c2ccc(NC(=O)C(NC(=O)c3ccc(NC(=O)c4ccc([N+](=O)[O-])cc4)cc3)C(OC)C(N)=O)cc2)c(OC(C)C)c1O (centres unmarked) [cystobactamide G]
MIC, in words [2]: in the μg/ml range | MIC [2, 30]: 3.6 µg/mL (≈ 4.04 µM) | GI50 [28]: 37 to 111 µM | MIC [15, 31]: 0.9 µg/mL (≈ 1.01 µM) | MIC [16]: 0.9 µg/mL (≈ 1.01 µM) | MIC [26]: 7.1 µg/mL (≈ 7.96 µM) | inhibition of pathogenic Gram-negative strains A. baumannii and P. aeruginosa (MIC range) [29]: low μg/ml range

CC(=O)O[C@H]1C[C@@]2(C)[C@@H](C[C@@H](O)[C@H]3[C@@]4(C)CC[C@@H](O)[C@@H](C)[C@@H]4CC[C@@]32C)/C1=C(\CCC=C(C)C)C(=O)O [fusidinic acid]
growth of strain MCy8071 in presence of the antibiotic [1]: resistant
